In US9187458B2, “Cyanoquinoline derivatives” (Tianjin Hemay Bio-Tech Co., LTD., priority 2010, dated 2015) one finds GI50, IC50 and inhibition data, which are given here for five compounds.

Usually GI50 stands for the concentration that inhibits growth by half. The low end stands for greater sensitivity of the cells, the high end for lower sensitivity of the cells. By IC50 is commonly meant the midpoint of a concentration-inhibition curve. Higher therefore signals weaker potency.

Assay [1] deals with Sk-Br-3 cells. Kind of assay: Sk-Br-3 Cell Growth Inhibition Test (SRB Assay). The assay is classed as cell-based. The conditions noted are these: Homo sapiens, 91 h incubation. A digest of the protocol:
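Sk-Br-3 cells seeded at 10000/well in DMEM with 10% FBS were incubated overnight, then exposed to compound for 91 h at 37° C, 5% CO2. TCA-fixed cells were SRB-stained and OD read at 570 nm. GI50, TGI and LC50 were derived from growth relative to time-zero, untreated and blank wells.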

The test system of assay [2] is LoVo cells. Kind of assay: LoVo Cell Growth Inhibition Test (MTT Assay). Type of assay: cell-based. The conditions noted are these: Homo sapiens, 72 h incubation. A digest of the protocol:
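Human LoVo intestinal cancer cells, 3000-4000 per well, were treated with compound for 72 h at 37° C, 5% CO2. Growth was measured by MTT (0.5 mg/ml, 4 h), DMSO-solubilised, OD 490 nm; IC50 is the concentration giving 50% inhibition.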

Assay [3] concerns BT-474 cells. Nature of the assay: BT-474 Cell Growth Inhibition Test (SRB Assay). Type of assay: cell-based, human. The conditions noted are these: Homo sapiens, 70 h incubation; for inhibition at 1 µM: BT-474, 70 h, compound 1 μM, read-out: Growth Inhibition Ratio (%). A digest of the protocol:
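Human breast tumour BT-474 cells (1×10^5/ml seeding, overnight) exposed to compound 70 h at 37 °C, 5% CO2; TCA-fixed, SRB-stained, dye dissolved in 10 mM Tris and OD read at 570 nm. Inhibition ratio = (PC−n)/(PC−NC)×100%; IC50 is the concentration giving 50% inhibition, from fitted curves.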

Turning to `C#Cc1cccc(Nc2c(C#N)cnc3cc(O[C@H]4CCOC4)c(NC(=O)/C=C/CN(C)Cc4ccccc4)cc23)c1` [Example 149, (S,E)-N-(3-CYANO-4-(3-ETHYNYLPHENYLAMINO)-7-(TETRAHYDROFURAN-3-YL-OXY)QUINOLIN-6-YL)-4-(N-METHYLBENZYLAMINO)-BUT-2-ENAMIDE], it took 644 nM to inhibit growth in assay [1] by half (GI50). In assay [2], this compound gave a half-inhibitory concentration (IC50) of 2300 nM. Also, in assay [3], half-maximal inhibition (IC50) required 212 nM and the inhibition at 1 µM came to 79%.
In assay [1], `CCN(CC)C/C=C/C(=O)Nc1cc2c(Nc3ccc(OCc4ccccn4)c(Cl)c3)c(C#N)cnc2cc1O[C@H]1CCOC1` [Example 150, (S,E)-N-(4-(3-CHLORO-4-(PYRIDIN-2-YL-METHOXY)PHENYLAMINO)-3-CYANO-7-(TETRAHYDROFURAN-3-YL-OXY)QUINOLIN-6-YL)-4-(DIETHYLAMINO)-BUT-2-ENAMIDE] returned a GI50 of 11 nM. In assay [2], this compound gave a half-maximal inhibitory concentration (IC50) of 2200 nM. Also, in assay [3], the IC50 was found to be 4.9 nM and the inhibition at 1 µM was found to be 82%.
As to `N#Cc1cnc2cc(O[C@H]3CCOC3)c(NC(=O)/C=C/CN3CCCCC3)cc2c1Nc1ccc(OCc2ccccn2)c(Cl)c1` [Example 151, (S,E)-N-(4-(3-CHLORO-4-(PYRIDIN-2-YL-METHOXY)PHENYLAMINO)-3-CYANO-7-(TETRAHYDROFURAN-3-YL-OXY)QUINOLIN-6-YL)-4-(PIPERIDIN-1-YL)-BUT-2-ENAMIDE], in assay [1], the GI50 stood at 17 nM. In addition, the results for the IC50 in assay [2] and in assay [3] were 1900 nM and 6.5 nM, respectively. In addition, the inhibition at 1 µM in assay [3] stood at 80%.
Turning to `N#Cc1cnc2cc(O[C@H]3CCOC3)c(NC(=O)/C=C/CN3CCOCC3)cc2c1Nc1ccc(OCc2ccccn2)c(Cl)c1` [Example 152, (S,E)-N-(4-(3-CHLORO-4-(PYRIDIN-2-YL-METHOXY)PHENYLAMINO)-3-CYANO-7-(TETRAHYDROFURAN-3-YL-OXY)QUINOLIN-6-YL)-4-(MORPHOLIN-4-YL)-BUT-2-ENAMIDE], the GI50 in assay [1] stood at 19 nM. In assay [2], this compound showed an IC50 of 6600 nM. Moreover, in assay [3], the concentration for half-maximal inhibition (IC50) is 10.4 nM and the inhibition at 1 µM is 78%.
In assay [1], `CC(C)(C)NC/C=C/C(=O)Nc1cc2c(Nc3ccc(OCc4ccccn4)c(Cl)c3)c(C#N)cnc2cc1O[C@H]1CCOC1` [Example 153, (S,E)-N-(4-(3-CHLORO-4-(PYRIDIN-2-YL-METHOXY)PHENYLAMINO)-3-CYANO-7-(TETRAHYDROFURAN-3-YL-OXY)QUINOLIN-6-YL)-4-(TERT-BUTYLAMINO)-BUT-2-ENAMIDE] came in with a GI50 of 6.8 nM. Also, the 50% inhibitory concentration (IC50) in assay [2] worked out at 5600 nM; in assay [3] it was 7.2 nM.
